In patent US11072632B2, “Inhibitors of 17β-HSD1, 17β-HSD3 and 17β-HSD10” (UNIVERSITÉ LAVAL, priority 2011, dated 2021):
Read-outs that look alike come from different tables or passages of the source.

Legend:
17β-HSD3 [1] = molecular target: T1, 17β-HSD3 (Homo sapiens, UniProt P37058); assay: Inhibition of 17β-HSD3 in homogenated HEK-293 cells; type: biochemical
T1 construct: expressed in transfected cells; host or cells: HEK-293 (homogenate)
T1 sequence (P37058 1-310): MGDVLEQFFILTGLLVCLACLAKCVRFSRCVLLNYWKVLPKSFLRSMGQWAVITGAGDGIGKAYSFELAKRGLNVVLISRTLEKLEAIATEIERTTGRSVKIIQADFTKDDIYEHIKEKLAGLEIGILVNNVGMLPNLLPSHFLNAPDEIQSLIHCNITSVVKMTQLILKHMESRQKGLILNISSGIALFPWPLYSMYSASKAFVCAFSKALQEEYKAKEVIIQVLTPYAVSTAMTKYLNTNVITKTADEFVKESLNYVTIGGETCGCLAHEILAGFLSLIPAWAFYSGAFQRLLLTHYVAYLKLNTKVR

17β-HSD3 [2] = molecular target: T1, 17β-HSD3; assay: Inhibition of 17β-HSD3 in intact HEK-293 cells; type: cell-based; settings: for inhibition at 0.1 µM: HEK293, 1 h

Compound | Homo (%) (0.01 μM) (17β-HSD3 [1]; Table 3) | Homo (%) (0.1 μM) (17β-HSD3 [1]; Table 3) | Intact cells (%) (0.1 μM) (17β-HSD3 [2]; Table 3) | also measured
C[C@]12CC[C@](O)(CN3CCN(Cc4ccc(C(F)(F)F)cc4)CC3)C[C@@H]1CC[C@@H]1[C@@H]2CC[C@]2(C)C(=O)CC[C@@H]12 [Compound 10c, (3α,5α)-3-hydroxy-3-({4-[4-(trifluoromethyl)benzyl]piperazin-1-yl}methyl)androstan-17-one] |  |  |  | inhibition at 0.01 µM (17β-HSD3 [1]; Table 3, read-out: Homo (%) (0.01 μM)): 14%; inhibition at 0.1 µM (17β-HSD3 [1]; Table 3, read-out: Homo (%) (0.1 μM)): 81%; inhibition at 0.1 µM (17β-HSD3 [2]; Table 3, read-out: Intact cells (%) (0.1 μM)): 33%
C[C@]12CC[C@](O)(CN3CCN(Cc4cc(C(F)(F)F)ccc4C(F)(F)F)CC3)C[C@@H]1CC[C@@H]1[C@@H]2CC[C@]2(C)C(=O)CC[C@@H]12 [Compound 10h, (3α,5α)-3-({4-[2,5-bis(trifluoromethyl)benzyl]piperazin-1-yl}methyl)-3-hydroxyandrostan-17-one] | 18% | 85% | 12% | 
C[C@]12CC[C@](O)(CN3CCN(Cc4ccc(C(F)(F)F)cc4C(F)(F)F)CC3)C[C@@H]1CC[C@@H]1[C@@H]2CC[C@]2(C)C(=O)CC[C@@H]12 [Compound 10i, (3α,5α)-3-({4-[2,4-bis(trifluoromethyl)benzyl]piperazin-1-yl}methyl)-3-hydroxyandrostan-17-one] | 22% | 75% | 16% | 
C[C@]12CC[C@](O)(CN3CCN(Cc4cc(C(F)(F)F)cc(C(F)(F)F)c4)CC3)C[C@@H]1CC[C@@H]1[C@@H]2CC[C@]2(C)C(=O)CC[C@@H]12 [Compound 10j, (3α,5α)-3-({4-[3,5-bis(trifluoromethyl)benzyl]piperazin-1-yl}methyl)-3-hydroxyandrostan-17-one] | 25% | 83% | 25% | 
CC1CN(C[C@@]2(O)CC[C@@]3(C)[C@@H](CC[C@@H]4[C@@H]3CC[C@]3(C)C(=O)CC[C@@H]43)C2)C(C)CN1Cc1cc(C(F)(F)F)ccc1C(F)(F)F (stereo partly drawn) [Compound 11h, (3α,5α)-3-({(2ξ,5ξ)-4-[2,5-bis(trifluoromethyl)benzyl]-2,5-dimethylpiperazin-1-yl}methyl)-3-hydroxyandrostan-17-one] | 16% | 71% | 23% | 
CC1CN(CC2(O)CCC3(C)C(CCC4C5CCC(=O)C5(C)CCC43)C2)C(C)CN1Cc1ccc(C(F)(F)F)cc1C(F)(F)F (stereo not drawn) [Compound 11i, (3α,5α)-3-({(2ξ,5ξ)-4-[2,4-bis(trifluoromethyl)benzyl]-2,5-dimethylpiperazin-1-yl}methyl)-3-hydroxyandrostan-17-one] | 15% | 71% | 21% | 
CC1CN(C[C@@]2(O)CC[C@@]3(C)[C@@H](CC[C@@H]4[C@@H]3CC[C@]3(C)C(=O)CC[C@@H]43)C2)C(C)CN1Cc1cc(C(F)(F)F)cc(C(F)(F)F)c1 (stereo partly drawn) [Compound 11j, (3α,5α)-3-({(2ξ,5ξ)-4-[3,5-bis(trifluoromethyl)benzyl]-2,5-dimethylpiperazin-1-yl}methyl)-3-hydroxyandrostan-17-one] | 25% | 74% | 16% | 
C[C@]12CC[C@](O)(CN3CCN(C(=O)c4ccccc4)CC3)C[C@@H]1CC[C@@H]1[C@@H]2CC[C@]2(C)C(=O)CC[C@@H]12 [Compound 12a, (3α,5α)-3-hydroxy-3-{[4-(phenylcarbonyl)piperazin-1-yl]methyl}androstan-17-one] |  |  |  | inhibition at 0.01 µM (17β-HSD3 [1]; read-out: Homo (%) (0.01 μM), Table 3): 17%; inhibition at 0.1 µM (17β-HSD3 [1]; read-out: Homo (%) (0.1 μM), Table 3): 76%; inhibition at 0.1 µM (17β-HSD3 [2]; read-out: Intact cells (%) (0.1 μM), Table 3): 50%
C[C@]12CC[C@](O)(CN3CCN(C(=O)C4CCCCC4)CC3)C[C@@H]1CC[C@@H]1[C@@H]2CC[C@]2(C)C(=O)CC[C@@H]12 [Compound 12b, (3α,5α)-3-{[4-(cyclohexylcarbonyl)piperazin-1-yl]methyl}-3-hydroxyandrostan-17-one] | 19% | 75% |  | Intact cells (%), tested at 1 μM (17β-HSD3 [2]; Table 3, footnote b, 1 μM): N/A (70)^b %
C[C@]12CCC(=O)C=C1CC[C@@H]1[C@@H]2CC[C@]2(C)C(=O)CC[C@@H]12 [Δ^4-dione, 4-androstene-3,17-dione, reference compound] |  |  |  | IC50 (17β-HSD3 [2]; intact HEK-293 cells overexpressing 17β-HSD3, [14C]-Δ4-dione 50 nM): 337 nM
